Measured values: PubChem BioAssay (NCI)
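Each compound was tested at five concentrations against cells in 96-well plates for 48 hours. TGI: concentration producing complete growth inhibition.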

Tests used:
Assay in all cases: NCI-60 cell line screen, 48 h
[1] = tested on: NCI-H226 lung
[2] = tested on: EKVX NSCLC
[3] = tested on: M19-MEL melanoma
[4] = tested on: TK-10 renal
[5] = tested on: U251 CNS
[6] = tested on: HCC-2998 colon
[7] = tested on: NCI-H23 lung
[8] = tested on: SNB-78 CNS
[9] = tested on: SF-539 CNS
[10] = tested on: SF-295 CNS
[11] = tested on: MOLT-4 leukemia
[12] = tested on: HL-60(TB) leukemia
[13] = tested on: IGROV1 ovarian
[14] = tested on: HT29 colon
[15] = tested on: A549 NSCLC
[16] = tested on: COLO 205 colon
[17] = tested on: NCI-H522 lung
[18] = tested on: RXF 393 renal
[19] = tested on: HOP-92 NSCLC
[20] = tested on: UACC-62 melanoma
[21] = tested on: HCT-116 colon
[22] = tested on: SK-OV-3 ovarian
[23] = tested on: SR leukemia
[24] = tested on: SK-MEL-28 melanoma
[25] = tested on: UO-31 renal
[26] = tested on: CCRF-CEM leukemia
[27] = tested on: RPMI-8226 leukemia
[28] = tested on: SNB-75 CNS
[29] = tested on: 786-0 renal
[30] = tested on: OVCAR-8 ovarian
[31] = tested on: LXFL 529 NSCLC
[32] = tested on: NCI-H460 lung
[33] = tested on: SF-268 CNS
[34] = tested on: CAKI-1 renal
[35] = tested on: OVCAR-3 ovarian
[36] = tested on: SW-620 colon
[37] = tested on: MALME-3M melanoma
[38] = tested on: SK-MEL-5 melanoma
[39] = tested on: SK-MEL-2 melanoma
[40] = tested on: KM12 colon
[41] = tested on: OVCAR-5 ovarian
[42] = tested on: SN12C renal
[43] = tested on: ACHN renal
[44] = tested on: DLD-1 colon
[45] = tested on: SNB-19 CNS
[46] = tested on: UACC-257 melanoma
[47] = tested on: A498 renal
[48] = tested on: DMS 273 small cell lung

Measured: TGI

CN(c1ccccc1)C1C(=O)N(c2ccccc2)C1/C=C/c1ccccc1 (stereo not drawn)
> 100 µM: all assays above
